{"source": "patent US20250092395A1", "about": "“A GLUN2D INHIBITOR FOR USE IN THE TREATMENT OR RELAPSE PREVENTION OF A DEPRESSIVE EPISODE” (priority 2022, published 2025)", "key": {"[1]": {"tested_on": "SOM-dependent feedback loop, CA1 PCs", "test": "Feedback loop-activating protocol (FLAP) in CA1 PCs", "type": "cell-based, mice", "experimental": "A 300 ms depolarizing current between +100 and +[…] was injected via the patch pipette into a PC to elicit a train of 5-10 APs. After an interval of 600 ms, one EPSP (5-10 mV amplitude) was elicited by Schaffer collateral stimulation. This pattern was continuously repeated at a frequency of 0.2 Hz. Substances were added by bath application after a stable 10 min baseline recording for an additional 20 min. For data analysis the maximum EPSP amplitudes from minutes 0-10 were averaged and compared to averaged maximum EPSP amplitudes from minutes 20-30.\nThe slope of the EPSP rise at 20% to 40% of its maximal amplitude, at which point an approximately linear increase in its voltage could be assumed, was fitted with Fitmaster software (HEKA, Germany). We analyzed 20 EPSPs before and 20 EPSPs 25-30 minutes after NAB-14 wash-in in the FLAP protocol for each experiment. The coefficient of variation (CV) is the standard deviation of the EPSP slopes divided by the mean. The inverse square of the CV of the postwash-in slopes was divided by the inverse square of the prewash-in slopes and plotted against the corresponding normalized slopes. Pre- and postwash-in measurements from a single experiment are connected by a line. In a standard quantal model for synaptic transmission, synaptic responses are affected either by presynaptic changes in the number of release sites and/or the probability of release or by modifications of the postsynaptic response to a single […]. A change in the ratio of CV-2 reflects a presynaptic action, whereas horizontal lines in the CV-2 plot indicate a change in postsynaptic responsiveness."}, "[2]": {"tested_on": "SOM-dependent feedback loop, CA1 PCs", "test": "Feedback loop-activating protocol (FLAP) in CA1 PCs", "type": "cell-based, mice", "remark": "listed apart in the source"}}, "note": "Entries after “also recorded” stand apart in the source; their conditions may differ."}
{"smiles": "CN1C(=O)CN=C(c2ccccc2)c2cc(Cl)ccc21", "note": "[diazepam]", "values": [{"measurement": "NAB-14-induced increase in EPSP amplitude in FLAP, in presence of diazepam", "setting": "[1]", "value": "abolished; also recorded: prevented"}, {"measurement": "EPSP amplitude in the absence of AP bursts", "setting": "[2]", "value": "neither NAB14 nor diazepam wash-in significantly altered the EPSP amplitude; also recorded: no significant pre/post changes"}]}
